Assay results as given in the NIST ThermoML archive (doi:10.1021/acs.jced.7b00604).
Numbers after ± are expanded uncertainties.

Test: xn = mol fraction of the nth substance listed
Conditions: 100 kPa, Liquid; for speed of sound: Frequency=3 MHz, Sing-around technique in a fixed-path interferometer; for mass density: Vibrating tube method

COCCO [2-methoxyethan-1-ol] + CCCC[n+]1ccn(C)c1.O=S(=O)([N-]S(=O)(=O)C(F)(F)F)C(F)(F)F
Conditions	mass density [kg/m3]	speed of sound [m/s]
298.15 K, x2 = 0	960.31 ± 1	1341.8 ± 1.5
298.15 K, x2 = 0.0966	1098.07 ± 1.1	1301.4 ± 1.5
298.15 K, x2 = 0.1943	1188.97 ± 1.1	1279.7 ± 1.5
298.15 K, x2 = 0.2887	1250.58 ± 1.1	1266 ± 1.5
298.15 K, x2 = 0.3979	1302.72 ± 1.1	1253.5 ± 1.5
298.15 K, x2 = 0.4792	1332.79 ± 1.1	1246.7 ± 1.5
298.15 K, x2 = 0.5943	1365.91 ± 1.1	1239.9 ± 1.5
298.15 K, x2 = 0.6753	1384.52 ± 1.1	1236.6 ± 1.5
298.15 K, x2 = 0.8101	1409.81 ± 1.1	1232.5 ± 1.5
298.15 K, x2 = 0.8849	1421.49 ± 1.1	1230.2 ± 1.5
303.15 K, x2 = 0	955.71 ± 1	1324.1 ± 1.5
303.15 K, x2 = 0.0966	1093.42 ± 1.1	1285.2 ± 1.5
303.15 K, x2 = 0.1943	1184.24 ± 1.1	1264.7 ± 1.5
303.15 K, x2 = 0.2887	1245.82 ± 1.1	1251.7 ± 1.5
303.15 K, x2 = 0.3979	1298.03 ± 1.1	1240.4 ± 1.5
303.15 K, x2 = 0.4792	1328.12 ± 1.1	1234.1 ± 1.5
303.15 K, x2 = 0.5943	1361.32 ± 1.1	1227.6 ± 1.5
303.15 K, x2 = 0.6753	1379.92 ± 1.1	1224.9 ± 1.5
303.15 K, x2 = 0.8101	1405.23 ± 1.1	1221.2 ± 1.5
303.15 K, x2 = 0.8849	1416.91 ± 1.1	1219 ± 1.5
308.15 K, x2 = 0	951.08 ± 1	1307.3 ± 1.5
308.15 K, x2 = 0.0966	1088.78 ± 1.1	1269.8 ± 1.5
308.15 K, x2 = 0.1943	1179.32 ± 1.1	1250.1 ± 1.5
308.15 K, x2 = 0.2887	1240.86 ± 1.1	1237.7 ± 1.5
308.15 K, x2 = 0.3979	1292.99 ± 1.1	1227.8 ± 1.5
308.15 K, x2 = 0.4792	1323.11 ± 1.1	1221.7 ± 1.5
308.15 K, x2 = 0.5943	1356.31 ± 1.1	1216.1 ± 1.5
308.15 K, x2 = 0.6753	1374.96 ± 1.1	1213.3 ± 1.5
308.15 K, x2 = 0.8101	1400.24 ± 1.1	1209.9 ± 1.5
308.15 K, x2 = 0.8849	1411.97 ± 1.1	1208.2 ± 1.5
313.15 K, x2 = 0	946.41 ± 1	1292 ± 1.5
313.15 K, x2 = 0.0966	1084.06 ± 1.1	1255.3 ± 1.5
313.15 K, x2 = 0.1943	1174.55 ± 1.1	1236.4 ± 1.5
313.15 K, x2 = 0.2887	1236.14 ± 1.1	1224.7 ± 1.5
313.15 K, x2 = 0.3979	1288.26 ± 1.1	1215.7 ± 1.5
313.15 K, x2 = 0.4792	1318.36 ± 1.1	1209.7 ± 1.5
313.15 K, x2 = 0.5943	1351.69 ± 1.1	1204.9 ± 1.5
313.15 K, x2 = 0.6753	1370.39 ± 1.1	1202 ± 1.5
313.15 K, x2 = 0.8101	1395.76 ± 1.1	1198.9 ± 1.5
313.15 K, x2 = 0.8849	1407.44 ± 1.1	1197.3 ± 1.5
318.15 K, x2 = 0	941.72 ± 1	1274.2 ± 1.5
318.15 K, x2 = 0.0966	1079.38 ± 1.1	1238.8 ± 1.5
318.15 K, x2 = 0.1943	1169.76 ± 1.1	1221.3 ± 1.5
318.15 K, x2 = 0.2887	1231.28 ± 1.1	1210.4 ± 1.5
318.15 K, x2 = 0.3979	1283.31 ± 1.1	1202.3 ± 1.5
318.15 K, x2 = 0.4792	1313.34 ± 1.1	1197.1 ± 1.5
318.15 K, x2 = 0.5943	1346.72 ± 1.1	1192.7 ± 1.5
318.15 K, x2 = 0.6753	1365.42 ± 1.1	1190.3 ± 1.5
318.15 K, x2 = 0.8101	1390.82 ± 1.1	1187.7 ± 1.5
318.15 K, x2 = 0.8849	1402.59 ± 1.1	1186.3 ± 1.5
323.15 K, x2 = 0	936.99 ± 1	1259.4 ± 1.5
323.15 K, x2 = 0.0966	1074.61 ± 1.1	1224.6 ± 1.5
323.15 K, x2 = 0.1943	1165.02 ± 1.1	1207.8 ± 1.5
323.15 K, x2 = 0.2887	1226.67 ± 1.1	1197.6 ± 1.5
323.15 K, x2 = 0.3979	1278.8 ± 1.1	1190.1 ± 1.5
323.15 K, x2 = 0.4792	1308.85 ± 1.1	1185 ± 1.5
323.15 K, x2 = 0.5943	1342.24 ± 1.1	1181.1 ± 1.5
323.15 K, x2 = 0.6753	1361.02 ± 1.1	1179.1 ± 1.5
323.15 K, x2 = 0.8101	1386.53 ± 1.1	1176.9 ± 1.5
323.15 K, x2 = 0.8849	1398.24 ± 1.1	1175.9 ± 1.5
